Measured values taken from US20090118271A1, “Preventive or Therapeutic Agents for Pancreatic Cancer, Ovarian Cancer, or Liver Cancer Comprising a Novel Water-Soluble Prodrug” (CHUGAI SEIYAKU KABUSHIKI KAISHA, priority 2005, published 2009).

Tests used:
Assay type in all cases: in vivo
[1] = tested on: human pancreatic cancer cell line AsPC-1; assay: Antitumor effect in AsPC-1 tumor-bearing nude mice; settings: AsPC-1 s.c. xenograft, BALB/c nude mice, 60 mg/kg/inj. (47 in terms of free base) intravenously, once a week for three weeks
Protocol: (§1) Antitumor effects were determined for representative examples of the compound groups of the present invention. Antitumor effects were determined using tumor-bearing mice generated by subcutaneous transplantation of human pancreatic cancer cell line AsPC-1 obtained from American Type Culture Collection (Virginia, USA) into the right ventral neck of BALB/c nude mice purchased from Japan Charles River.
After a one-week quarantine period, the purchased nude mice were subjected to subcutaneous transplantation of 4.8×10^6 AsPC-1 cells to their right ventral neck. Mice with a tumor size reaching 200 mm^3 or so were subjected to the experiment.
(§2) The compounds were dissolved in 1 mM citric acid/physiological saline (pH3.1-3.2), and were administered intravenously. The administration was carried out once a week for three weeks, for a total of three administrations. The antitumor effect was determined as tumor growth inhibition (TGI), using the following equation.
(§3) Tumor growth inhibition (TGI) (%)={(1−amount of tumor growth in the group treated with the drug/amount of tumor growth in the control group)×100}

[2] = tested on: human ovarian cancer cell line PA-1; assay: Antitumor effect in PA-1 tumor-bearing nude mice; settings: PA-1 s.c. xenograft, BALB/c nude mice, 40 mg/kg/inj. (32 in terms of free base) intravenously, once a week for three weeks
Protocol: as §1, with “by the” for “by”, “ovarian” for “pancreatic”, “PA-1” for “AsPC-1”
After a one-week quarantine period, the purchased nude mice were subjected to subcutaneous transplantation of 9.8×10^6 PA-1 cells to their right ventral neck. Mice with a tumor size reaching 200 mm^3 or so were subjected to the experiment.
(§4) The compounds were dissolved in physiological saline, and were administered intravenously. The administration was carried out once a week for three weeks, for a total of three administrations. The antitumor effect was determined as tumor growth inhibition (TGI), using the following equation.
Tumor growth inhibition (TGI) (%) {(1−amount of tumor growth in the group treated with the drug/amount of tumor growth in the control group)×100}

[3] = tested on: human ovarian cancer cell line SK-OV-3; assay: Antitumor effect in SK-OV-3 tumor-bearing nude mice; settings: SK-OV-3 s.c. xenograft, BALB/c nude mice, 60 mg/kg/inj. (47 in terms of free base) intravenously, once a week for three weeks
Protocol: Antitumor effects were determined for representative examples of the compound groups of the present invention. Antitumor effects were determined using tumor-bearing mice generated by subcutaneous transplantation of the human ovarian cancer cell line SK-OV-3 obtained from American Type Culture Collection (Virginia, USA) into the right ventral neck of BALB/c nude mice purchased from Japan Charles River.
After a six-day quarantine period, the purchased nude mice were subjected to subcutaneous transplantation of a 2-3 mm square piece of the SK-OV-3 tumor to their right ventral neck. Mice with a tumor size reaching 210 mm^3 or so were subjected to the experiment.
as §4, §3

[4] = tested on: human pancreatic cancer cell line BxPC-3; assay: Antitumor effect in BxPC-3 tumor-bearing nude mice; settings: BxPC-3 s.c. xenograft, BALB/c nude mice, 66 mg/kg/inj. (47 in terms of free base) intravenously, once a week for three weeks
Protocol: as §1, with “BxPC-3” for “AsPC-1”
After a seven-day quarantine period, the purchased nude mice were subjected to subcutaneous transplantation of 9×10^6 BxPC-3 cells to their right ventral neck. Mice with a tumor size reaching 400 mm^3 or so were subjected to the experiment.
as §2, §3

[5] = tested on: human liver cancer cell line PLC/PRF/5; assay: Antitumor effect in PLC/PRF/5 tumor-bearing nude mice; settings: PLC/PRF/5 s.c. xenograft, BALB/c nude mice, 60 mg/kg/inj. (47 in terms of free base) intravenously, once a week for three weeks
Protocol: as §1, with “liver” for “pancreatic”, “PLC/PRF/5” for “AsPC-1”, “Human Science” for “American Type Culture Collection (Virginia, USA)”
After a one-week quarantine period, the purchased nude mice were subjected to subcutaneous transplantation of 20×10^6 PLC/PRF/5 cells to their right ventral neck. Mice with a tumor size reaching 200 mm^3 or so were subjected to the experiment.
as §4, §3

[6] = tested on: human pancreatic cancer cell line Capan-1; assay: Antitumor effect in Capan-1 tumor-bearing nude mice; settings: Capan-1 s.c. xenograft, BALB/c nude mice, 66 mg/kg/inj. (47 in terms of free base) intravenously, once a week for three weeks
Protocol: as §1, with “Capan-1” for “AsPC-1”
After a 19-day quarantine period, the purchased nude mice were subjected to subcutaneous transplantation of 10×10^6 Capan-1 cells to their right ventral neck. Mice with a tumor size reaching 260 mm^3 or so were subjected to the experiment.
as §2, §3

CCCCCN1C=Nc2cccc3nc4c(c1c23)Cn1c-4cc2c(c1=O)COC(=O)[C@@]2(CC)OC(=O)CN(C)C(=O)CN.Cl [Compound 2A, (9S)-9-Ethyl-9-(glycyl-sarcosyloxy)-1-pentyl-1H,12H-pyrano[3″,4″:6′,7′]indolizino[1′,2′:6,5]pyrido[4,3,2-de]quinazoline-10,13(9H,15H)-dione Hydrochloride]
TGI (%) on Day 21 [1]: 73% | TGI (%) on Day 21 [2]: 84% | TGI (%) on Day 21 [3]: 52% | TGI (%) on Day 14 ([4]; Day 14): 55% | TGI (%) on Day 21 ([4]; Day 21): 47% | TGI (%) on Day 21 [5]: 84% | TGI (%) on Day 21 [6]: 122%
